# In patent publication US6465489B1, “Ureidopiperidine derivatives as selective human NK3 receptor antagonists” (Sanofi-Synthelabo, priority 1998, dated 2002):
# Tested on: bronchitic and cough response induced by citric acid
# Assay: Bronchitic and cough response induced by citric acid in guinea pigs
# Format: in vivo, guinea pig
# Settings: compared with osanetant
# Source text: In guinea pigs, the effect on the bronchitic and cough response induced by citric acid has been studied using the model described by S. Daoui et al., in Am. J. Resp. Crit. Care Med., 1998, 158, 42-48. In this test, the Example 10 compound has shown an activity 10 times greater than that of osanetant.
smiles,measurement,value
CN(C)C(=O)NC1(c2ccccc2)CCN(CCCC2(c3ccc(Cl)c(Cl)c3)CCCN(C(=O)c3ccccc3)C2)CC1 (stereo not shown) [Example 10],activity relative to osanetant,10 times
